How the values were obtained:
[1] = test system: beef muscle tissue (fillet mignon); assay: Tissue necrosis with AgNO3 bearing beads placed on beef muscle tissue; design: key: +: slight visible pitting of the tissue surface; ++: moderate pitting of tissue surface with slight blackening of the tissue; +++: significant pitting with moderate blackening of the tissue; ++++: severe pitting with complete blackening of the tissue; +++++: severe pitting with complete blackening of the tissue, spreading beyond the point of contact; −−−: no observed necrosis; settings: tissue under bead on beef muscle surface
Source text: The degree of necrosis was rated as follows: slight visible pitting of the tissue surface (+); moderate pitting of tissue surface with slight blackening of the tissue (++); significant pitting with moderate blackening of the tissue (+++); severe pitting with complete blackening of the tissue (++++); severe pitting with complete blackening of the tissue, spreading beyond the point of contact (+++++); and no observed necrosis (−−−)

[2] = test system: Fallopian tubes; settings: even when massive tubal necrosis was achieved; cited from earlier work

O=[N+]([O-])[O-].[Ag+] [AgNO3 Crystal, silver nitrate]
Tissue Necrosis (degree of necrosis) ([1]; Time 5 minutes): +++ | Tissue Necrosis (degree of necrosis) ([1]; Time 10 minutes): ++++ | Tissue Necrosis (degree of necrosis) ([1]; Time 15 minutes): +++++ | Tissue Necrosis (degree of necrosis) ([1]; Time 20 minutes): +++++ | Fallopian tube closure after application [2]: a significant proportion of Fallopian tubes remained open

— US20090155367A1, “Occlusion of Fallopian Tubes” (priority 2005, published 2009)
